Laboratory results from patent US20040121965A1, “Method of treating resistant tumors” (Wyeth Holdings Corporation, priority 2002, published 2004).

Columns and labels:
KB-3-1 = assay: Cell survival assay (SRB), KB-3-1; assay type: cell-based, human; conditions: Homo sapiens, KB 3-1, KB-3-1 cells (paclitaxel-sensitive parent); read-out: In vitro IC50 (nM) KB-3-1
Source text: Cells lines with previously known mechanisms of resistance. […] Res. 8: 207-218,1996); KB-3-1 (parental derived from an epidermoid carcinoma), KB-8.5, KB-V1 (Akiyama S-I, Fojo A, Hanover J A, Pastan I, Gottesman M M. Isolation and genetic characterization of human KB cell lines resistant to multiple drugs. Somatic Cell Mol. Gen., 11: 117-126,1985; Shen D-W, Cardarelli C, Hwang J, Cornwell M, Richert N, Ishii S, Pastan I, Gottesman MM. […] J. Biol. Chem., 261: 7762-7770, 1986); and HL-60 (parental derived from human leukemia) and HL60/AR (McGrath T., Center M. S. Adriamycin resistance in HL60 cells in the absence of detectable P-glycoprotein. Biochem. Res. Commun., 145:1171-1176,1987); A549 and A549.EpoB40 (He L., Yang C.-P.H., Horwitz S. B. Mutations in p-tubulin map to domains involved in regulation of microtubule stability in epothilone-resistant cell lines. Molecular Cancer Therapeutics. 1: 3-10, 2001). HCT-15 human colon carcinoma and DLD-1 human colon carcinoma are obtained from American Tissue Culture Collection. The MX-1W carcinoma is a Wyeth variant orginally obtained as MX-1 breast carcinoma from the National Cancer Institute. Cell lines selected for resistance to Representative Example 129. KB-3-1 cells are selected for resistance to Example 129 by chronically exposing cells to increasing concentrations of Example 129.
2.2. Cell Survival Assay: Standard Pharmacological Test Procedure. The concentration of candidate inhibitor required to inhibit 50% of cell growth (IC50) is done according to previously reported methods. […] Compounds are serially diluted into media as 2× stocks and 100 μl added to cells in duplicate. Compounds are incubated with cells for 3 days. At the end of the incubation period the sulforhodamine B (SRB) assay, which measures protein content as an assessment of cell survival, is performed as described previously (Skehan P, Storeng R, Scudiero D, Monks A, McMahon J, Vistica D, Warren J T, Bokesch H, Kenney S, Boyd MR. New calorimetric cytotoxicity assay for anticancer-drug screening. J Natl Cancer Inst 1990 Jul 4;82(13):1107-12) with some modification as follows. For KB-3-1 cells with 20% FCS, media is gently decanted and replaced with 200 μl of serum-free media mixed with cold 50% TCA for a final concentration of 10% TCA. The plates are incubated for 1 hr at 4° C., followed by washing 5 times in cold distilled water, then air dried overnight. The fixed cells are stained for 10 min with 80 μl of 0.04% SRB solution prepared in 1% glacial acetic acid. Stain is discarded and plates washed 5 times in 1% glacial acetic acid, then air-dried until completely dry. Stained cell product is dissolved in 150 μl of 10 mM Trizma Base and placed on a shaker for 20 minutes until fully dissolved. Absorbance is read on a Victor V multi-label plate reader (Perkin Elmer, Gaithersburg, Md.).

KB-V1 (MDR1++) = assay: Cell survival assay (SRB), KB-V1 (MDR1++); conditions: for IC50: Homo sapiens, read-out: In vitro IC50 (nM) KBV1
KB-8-5 (MDR1+) = assay: Cell survival assay (SRB), KB-8-5 (MDR1+); conditions: for IC50: Homo sapiens, MDR1, read-out: In vitro IC50 (nM) KB85

| SMILES | IC50 (KB-3-1) [nM] | Ratio KBV1/KB (KB-V1 (MDR1++)) | IC50 (KB-V1 (MDR1++)) [nM] | Ratio KB85/KB (KB-8-5 (MDR1+)) | IC50 (KB-8-5 (MDR1+)) [nM] |
| --- | --- | --- | --- | --- | --- |
| CCOC(=O)/C(C)=C/[C@H](C(C)C)N(C)C(=O)[C@@H](NC(=O)[C@@H](NC)C(C)(C)c1ccc(C)c(C)c1)C(C)(C)C [Example 13a, N,β, β,3,4-Pentamethyl-L-phenylalanyl-N^1-[(1S,2E)4-ethoxy-1-isopropyl-3-methyl-4-oxo-2-butenyl]-N^1,3-dimethyl-L-valinamide] | 9.1 | 191.0 | 1740 | 24.0 | 219 |
| CN[C@@H](C(=O)N[C@H](C(=O)N(C)[C@H](/C=C(\C)C(=O)O)C(C)C)C(C)(C)C)C(C)(C)c1ccc(C)c(C)c1 [Example 15, N,β,β,3,4-Pentamethyl-D-phenylalanyl-N^1-[(1S,2E)-3-carboxy-1-isopropyl-2-butenyl]-N^1,3-dimethyl-L-valinamide] | 13.8 | 87.1 | 1200 | 1.6 | 21.4 |
| CCOC(=O)/C(C)=C/[C@H](C(C)C)N(C)C(=O)[C@@H](NC(=O)[C@@H](NC)C(C)(C)c1cc(C)cc(C)c1)C(C)(C)C [Example 16a, N,β,β,3,5-Pentamethyl-L-phenylalanyl-N^1-[(1S,2E)-4-ethoxy-1-isopropyl-3-methyl-4-oxo-2-butenyl]-N^1,3-dimethyl-L-valinamide] | 15.1 | 120.5 | 1820 | 20.0 | 302 |
| CCOC(=O)/C(C)=C/[C@H](C(C)C)N(C)C(=O)[C@@H](NC(=O)[C@H](NC)C(C)(C)c1cc(C)cc(C)c1)C(C)(C)C [Example 16b, N,β,β,3,5-pentamethyl-D-phenylalanyl-N^1-[(1S,2E)-4-ethoxy-1-isopropyl-3-methyl-4-oxo-2-butenyl]-N^1,3-dimethyl-L-valinamide] | 257 | 11.7 | ≥ 3000 | 5.9 | 1510 |
| CN[C@H](C(=O)N[C@H](C(=O)N(C)[C@H](/C=C(\C)C(=O)O)C(C)C)C(C)(C)C)C(C)(C)c1cc(C)cc(C)c1 [Example 17, N,β,β,3,5-Pentamethyl-L-phenylalanyl-N^1-[(1S,2E)-3-carboxy-1-isopropyl-2-butenyl]-N^1,3-dimethyl-L-valinamide] | 1 | 75.7 | 44 | – | 1 |
| CN[C@@H](C(=O)N[C@H](C(=O)N(C)[C@H](/C=C(\C)C(=O)O)C(C)C)C(C)(C)C)C(C)(C)c1cc(C)cc(C)c1 [Example 18, N,β,β,3,5-Pentamethyl-D-phenylalanyl-N^1-[(1S,2E)-3-carboxy-1-isopropyl-2-butenyl]-N^1,3-dimethyl-L-valinamide] | 7.2 | 79.9 | 575 | 2.4 | 17.4 |
| CN[C@@H](C(=O)N[C@H](C(=O)N(C)[C@H](/C=C(\C)C(=O)O)C(C)C)C(C)(C)C)C(C)(C)c1cccs1 [Example 21, N-Methyl-3-(2-thienyl)-D-valyl-N^1-[(1S,2E)-3-carboxy-1-isopropyl-2-butenyl]-N^1,3-dimethyl-L-valinamide] | 10.2 | 74.4 | 758 | 1.8 | 18.2 |
| CN[C@H](C(=O)N[C@H](C(=O)N(C)[C@H](/C=C(\C)C(=O)O)C(C)C)C(C)(C)C)C(C)(C)c1ccsc1 [Example 23, N-Methyl-3-thien-3-yl-L-valyl-N^1-[(1S,2E)-3-carboxy-1-isopropylbut-2-enyl]-N^1,3-dimethyl-L-valinamide] | 2.1 | 345.0 | 724 | 3.1 | 6.6 |
| CN[C@@H](C(=O)N[C@H](C(=O)N(C)[C@H](/C=C(\C)C(=O)O)C(C)C)C(C)(C)C)C(C)(C)c1ccsc1 [Example 24, N-Methyl-3-thien-3-yl-D-valyl-N^1-[(1S,2E)-3-carboxy-1-isopropylbut-2-enyl]-N^1,3-dimethyl-L-valinamide] | 9.5 | 182.9 | 1740 | 2.4 | 22.4 |
| CCOC(=O)/C(C)=C/[C@H](C(C)C)N(C)C(=O)[C@@H](NC(=O)C(NC)C(C)(C)c1csc2ccccc12)C(C)(C)C (stereo partly drawn) [Example 25, 3-(1-Benzothien-3-yl)-N-methylvalyl-N^1-[(l S,2E)-4-ethoxy-1-isopropyl-3-methyl4-oxo-2-butenyl]-N^1,3-dimethyl-L-valinamide] | 479 | 6.2 | 2950 | 3.2 | 1510 |
| CN[C@H](C(=O)N[C@H](C(=O)N(C)[C@H](/C=C(\C)C(=O)O)C(C)C)C(C)(C)C)C(C)(C)c1csc2ccccc12 [Example 26, 3-(1-Benzothien-3-yl)-N-methylvalyl-N^1-[(1S,2E)-3-carboxy-1-isopropyl-2-butenyl]-N^1,3-dimethyl-L-valinamide] | 4.5 | 92.6 | 417 | 2.0 | 9.1 |
| CCOC(=O)/C(C)=C/[C@H](C(C)C)N(C)C(=O)[C@@H](NC(=O)[C@@H](NC)C(C)(C)c1cc2ccccc2s1)C(C)(C)C [Example 27, 3-(1-Benzothien-2-yl)-N-methylvalyl-N^1-[(1S,2E)4-ethoxy-1-isopropyl-3-methyl4-oxo-2-butenyl]-N^1,3-dimethyl-L-valinamide] | 331 | 9.1 | ≥ 3000 | 4.8 | 1580 |
| CN[C@H](C(=O)N[C@H](C(=O)N(C)[C@H](/C=C(\C)C(=O)O)C(C)C)C(C)(C)C)C(C)(C)c1cc2ccccc2s1 [Example 28, 3-(1-Benzothien-2-yl)-N-methylvalyl-N^1-[(1S,2E)-3-carboxy-1-isopropyl-2-butenyl]-N^1,3-dimethyl-L-valinamide] | 2.55 | 54.4 | 139 | 1.8 | 4.6 |
| CCOC(=O)/C(C)=C/[C@H](C(C)C)N(C)C(=O)[C@@H](NC(=O)[C@@H](NC)C(C)(C)c1ccc(C(C)(C)C)cc1)C(C)(C)C [Example 29, 4-tert-Butyl-N,β,β-trimethylphenylalanyl-N^1-[(1S,2E)-4-ethoxy-1-isopropyl-3-methyl-4-oxo-2-butenyl]-N^1,3-dimethyl-L-valinamide] | 35.4 | 84.7 | ≥ 3000 | 10.7 | 380 |
| CN[C@H](C(=O)N[C@H](C(=O)N(C)[C@H](/C=C(\C)C(=O)O)C(C)C)C(C)(C)C)C(C)(C)c1ccc(C(C)(C)C)cc1 [Example 30, 4-tert-Butyl-N,β,β-trimethylphenylalanyl-N^1-[(1S,2E)-3-carboxy-1-isopropyl-2-butenyl]-N^1,3-dimethyl-L-valinamide] | 3 | 35.9 | 108 | 1.7 | 5.1 |
| CCN[C@H](C(=O)N[C@H](C(=O)N(C)[C@H](/C=C(\C)C(=O)OCC)C(C)C)C(C)(C)C)C(C)(C)c1ccccc1 [Example 31, N-Ethyl-β,β-dimethylphenylalanyl-N^1-[(1S,2E)-4-ethoxy-1-isopropyl-3-methyl4-oxo-2-butenyl]-N^1,3-dimethyl-L-valinamide] | 436 | 6.9 | ≥ 3000 | 4.3 | 1860 |
| CN[C@H](C(=O)N[C@H](C(=O)N(C)[C@H](/C=C(\C)C(=O)O)C(C)C)C(C)(C)C)C(C)(C)c1ccccc1C [Example 35, N,β,β,2-Tetramethyl-L-phenylalanyl-N^1-[(1S,2E)-3-carboxy-1-isopropyl-2-butenyl]-N^1,3-dimethyl-L-valinamide] | 0.912 | 61.6 | 56.2 | 2.0 | 1.8 |
